“And” between values parts separate entries of the source, which are not always exact repeats. Equal entries are not always repeated. Structures can show the parent of a compound that is named as a salt. Where two headings read alike, the source gives them in different places.
How the values were obtained:
[1] = tested on: SFV; experiment: microbe, parasite or virus in culture; format: cell-based, Semliki Forest virus; details: for inhibition at 10 µM: M-HeLa, 7 h, read-out: % inhibition (SFV screen); for % inhibition (SFV screen): 10 µM
[2] = tested on: DENV-2; experiment: DENV-2 infection assay / secondary screen (E protein staining); format: cell-based, dengue virus serotype 2; details: Dengue virus, DENV2, Huh-7, 24 h; for inhibition at 10 µM: read-out: % inhibition (DENV-2 screen)
[3] = tested on: Renilla luciferase expression (protein synthesis); format: cell-based
[4] = in vitro; details: human
[5] = in vitro; details: human; remark: listed apart in the source
[6] = tested on: HeLa Kyoto cells; details: 10 µM
[7] = tested on: Huh7 cells; details: 10 µM
[8] = tested on: SINV; experiment: microbe, parasite or virus in culture; format: cell-based, Sindbis virus; details: Sindbis virus, HeLa Kyoto, read-out: IC50 SINV
[9] = tested on: DENV-1; experiment: microbe, parasite or virus in culture; format: cell-based, dengue virus; details: Dengue virus, DENV1, Huh-7, read-out: IC50 DENV-1
[10] = tested on: DENV-3; experiment: microbe, parasite or virus in culture; format: cell-based, dengue virus; details: Dengue virus, DENV3, Huh-7, read-out: IC50 DENV-3
[11] = tested on: ZIKV; experiment: microbe, parasite or virus in culture; format: cell-based, Zika virus; details: Zika virus, Huh-7, read-out: IC50 ZIKV
[12] = tested on: YF17D; experiment: organism not typed; format: cell-based, yellow fever 17D; details: Huh-7, read-out: IC50 YF17D
[13] = tested on: HCV; experiment: microbe, parasite or virus in culture; format: cell-based, hepatitis C virus; details: Hepatitis C virus, Huh7.5, read-out: IC50 HCV
[14] = tested on: VSV VLP; experiment: microbe, parasite or virus in culture; format: cell-based, vesicular stomatitis virus; details: Vesicular stomatitis virus, HeLa Kyoto, 24 h, read-out: IC50 VSV
[15] = tested on: RABV VLP; experiment: microbe, parasite or virus in culture; format: cell-based, rabies virus; details: Lyssavirus rabies, HeLa Kyoto, 24 h, read-out: IC50 RABV
[16] = tested on: H5N1 VLP; experiment: microbe, parasite or virus in culture; format: cell-based, influenza H5N1; details: Influenza A virus, H5N1, HeLa Kyoto, 48 h, read-out: IC50 H5N1
[17] = tested on: EBOV VLP; experiment: microbe, parasite or virus in culture; format: cell-based, Ebola virus; details: Zaire ebolavirus, HeLa Kyoto, 48 h, read-out: IC50 EBOV
[18] = tested on: HSV-1; experiment: microbe, parasite or virus in culture; format: cell-based, herpes simplex virus 1; details: Human alphaherpesvirus 1, Vero, 8 h, read-out: IC50 HSV (Vero)
[19] = tested on: VACV; experiment: microbe, parasite or virus in culture; format: cell-based, vaccinia virus
[20] = tested on: SFV; format: cell-based, Semliki Forest virus
[21] = tested on: viruses/VLPs tested; format: cell-based
[22] = tested on: HeLa Kyoto cells; details: human
[23] = tested on: Huh7 cells; experiment: MTT assay, Huh7 cells

Q: For `CC[C@H]1CN2CCc3cc(OC)c(OC)cc3[C@@H]2C[C@@H]1C[C@H]1NCCc2cc(OC)c(OC)cc21` [Emetine dihydrochloride hydrate], which inhibition at 10 µM ([1]; Semliki Forest virus) is on record?
A: Its inhibition at 10 µM is 104%.

Q: And the inhibition at 10 µM [2]?
A: Its inhibition at 10 µM is 100%.

Q: What about the “Renilla signal (in words)” value [3] of the same compound?
A: Its value is “significantly reduced the Renilla signal”.

Q: And the viability at 10 µM ([4]; % viability (SFV screen))?
A: The viability at 10 µM was 104%.

Q: And the viability at 10 µM [5]?
A: Its viability at 10 µM is 51.2%.

Q: Which inhibition at 10 µM ([1]; Semliki Forest virus) does the source give for `O=C1NCCN1CCN1CCC(c2cn(-c3ccc(F)cc3)c3ccc(Cl)cc23)CC1` [Sertindole] here?
A: The inhibition at 10 µM was 67.2%.

Q: What about the viability at 10 µM ([4]; % viability (SFV screen)) of the same compound?
A: Its viability at 10 µM is 105%.

Q: What about the viability at 10 µM [5] of the same compound?
A: Its viability at 10 µM is 26.6%.

Q: Which results are given for `CCSc1ccc2c(c1)N(CCCN1CCN(C)CC1)c1ccccc1S2.O=C(O)CC(O)C(=O)O.O=C(O)CC(O)C(=O)O` [Thiethylperazine dimalate]?
A: % inhibition (SFV screen) [1]: 91.68%; % viability (SFV screen) [6]: 92.47%; % viability (DENV-2 screen) [7]: 0.15%

Q: What does the source list for `c1ccc2c(c1)OCC(C1=NCCN1)O2` (stereo not shown) [Idazoxan hydrochloride]?
A: inhibition at 10 µM ([1]; Semliki Forest virus): 94.5%; inhibition at 10 µM [2]: 48.8%; viability at 10 µM ([4]; % viability (SFV screen)): 67.6%; viability at 10 µM [5]: 71.2%

Q: Which results are given for `Clc1cc(Cl)c(OCC#CI)cc1Cl` [Haloprogin]?
A: inhibition at 10 µM ([1]; Semliki Forest virus): 99.8%; inhibition at 10 µM [2]: 1.64%; viability at 10 µM ([4]; % viability (SFV screen)): 75.4%; viability at 10 µM [5]: 104%

Q: With `[H]/N=C(\N/C(=N/[H])NCCCCCCNC(=N)NC(=N)Nc1ccc(Cl)cc1)Nc1ccc(Cl)cc1` [Chlorhexidine] as the compound, how does the inhibition at 10 µM ([1]; Semliki Forest virus) read?
A: Its inhibition at 10 µM is 96.6%.

Q: What about the viability at 10 µM ([4]; % viability (SFV screen)) of the same compound?
A: The viability at 10 µM was 96.2%.

Q: What about the viability at 10 µM [5] of the same compound?
A: Its viability at 10 µM is 16.6%.

Q: With `O=C1c2c(O)ccc(O)c2C(=O)c2c(NCCNCCO)ccc(NCCNCCO)c21` [Mitoxantrone, Mitoxantrone dihydrochloride] as the compound, how does the “% inhibition (SFV screen)” value [1] read?
A: The value was 59.01% and 85.19%.

Q: And the IC50 ([1]; Semliki Forest virus, HeLa Kyoto, read-out: IC50 SFV (7 h))?
A: The IC50 was 7 µM.

Q: What about the inhibition at 10 µM [2] of the same compound?
A: The inhibition at 10 µM was 99.4%.

Q: And the IC50 ([2]; read-out: IC50 DENV-2 (7 + 17 h))?
A: The IC50 was 2 µM.

Q: What about the IC50 ([2]; read-out: IC50 DENV-2 (24 h)) of the same compound?
A: Its IC50 is 2.1 µM.

Q: What about the IC50 [8] of the same compound?
A: Its IC50 is 9.9 µM.

Q: What about the IC50 [9] of the same compound?
A: Its IC50 is 5.6 µM.

Q: And the IC50 [10]?
A: The IC50 was 6.3 µM.

Q: And the IC50 [11]?
A: Its IC50 is about 25 µM.

Q: What about the IC50 [12] of the same compound?
A: Its IC50 is 2.2 µM.

Q: What about the IC50 [13] of the same compound?
A: Its IC50 is 2.7 µM.

Q: And the IC50 [14]?
A: Its IC50 is 0.6 µM.

Q: And the IC50 [15]?
A: The IC50 was under 0.5 µM.

Q: And the IC50 [16]?
A: Its IC50 is 2.8 µM.

Q: And the IC50 [17]?
A: Its IC50 is 0.1 µM.

Q: And the IC50 [18]?
A: The IC50 was 6.8 µM.

Q: And the “IC50 VACV” value [19]?
A: Its value is “No inhibition”.

Q: And the “Activity when added before SFV or 30 and 60 min after internalisation” value [20]?
A: Its value is “progressive and more dramatic decrease in activity”.

Q: What about the “Time of Addition” value [20] of the same compound?
A: The value was “Before and after fusion”.

Q: What about the “Viruses Inhibited” value [21] of the same compound?
A: The value was “Unclear pattern”.

Q: And the “TC50 SFV (7 h)” value [22]?
A: Its value is 43.2 µM.

Q: And the “TC50 SFV (7h)” value [22]?
A: Its value is 43200 µM.

Q: And the “% viability (SFV screen)” value ([6]; human)?
A: Its value is 88.92%.

Q: And the viability at 10 µM ([4]; % viability (SFV screen))?
A: The viability at 10 µM was 88.5%.

Q: And the viability at 10 µM [5]?
A: The viability at 10 µM was 11.2%.

Q: And the “TC50 DENV-2 (7 + 17 h)” value ([23]; Huh7, compounds 7 h then compound-free media 17 h)?
A: The value was 7.9 µM.

Q: What about the “TC50 DENV-2 (24 h)” value ([23]; Huh7, compounds 24 h) of the same compound?
A: Its value is 4.6 µM.

Q: What does the source list for `Cc1ccc(S(=O)(=O)NC(=O)NN2CCCCCC2)cc1` [Tolazamide]?
A: inhibition at 10 µM ([1]; Semliki Forest virus): 101%; inhibition at 10 µM [2]: 36.5%; viability at 10 µM ([4]; % viability (SFV screen)): 113%; viability at 10 µM [5]: 116%

Q: Which inhibition at 10 µM ([1]; Semliki Forest virus) does the source give for `C[C@@H]1C[C@@H]([C@H](O)CC2CC(=O)NC(=O)C2)C(=O)[C@@H](C)C1` [Cycloheximide] here?
A: The inhibition at 10 µM was 99.9%.

Q: What about the inhibition at 10 µM [2] of the same compound?
A: The inhibition at 10 µM was 64.5%.

Q: What about the viability at 10 µM [4] of the same compound?
A: Its viability at 10 µM is 94%.

Q: And the viability at 24 h, 10 µM [5]?
A: Its viability at 24 h, 10 µM is 60.1%.

Q: For `C=C(NC(=O)C(=C)NC(=O)c1csc(C2=N[C@@H]3c4csc(n4)[C@H]4NC(=O)c5csc(n5)[C@H]([C@](C)(O)[C@@H](C)O)NC(=O)[C@H]5CSC(=N5)/C(=C/C)NC(=O)[C@H]([C@@H](C)O)NC(=O)c5csc(n5)[C@]3(CC2)NC(=O)[C@H](C)NC(=O)C(=C)NC(=O)[C@H](C)NC(=O)[C@H]([C@@H](C)CC)N[C@@H]2C=Cc3c([C@H](C)O)cc(nc3[C@H]2O)C(=O)O[C@@H]4C)n1)C(N)=O` [Thiostrepton], which inhibition at 10 µM ([1]; Semliki Forest virus) is on record?
A: Its inhibition at 10 µM is 65.9%.

Q: What about the viability at 10 µM ([4]; % viability (SFV screen)) of the same compound?
A: The viability at 10 µM was 88.5%.

Q: What about the viability at 10 µM [5] of the same compound?
A: The viability at 10 µM was 18.7%.

Q: Which inhibition at 10 µM ([1]; Semliki Forest virus) does the source give for `CC/C(=C(\c1ccccc1)c1ccc(OCCN(C)C)cc1)c1ccccc1` [Tamoxifen citrate] here?
A: The inhibition at 10 µM was 98.3%.

Q: What about the viability at 10 µM ([4]; % viability (SFV screen)) of the same compound?
A: Its viability at 10 µM is 61.7%.

Q: With `Nc1c2ccccc2nc2ccccc12` [Aminacrine] as the compound, how does the inhibition at 10 µM ([1]; Semliki Forest virus) read?
A: The inhibition at 10 µM was 89.2%.

Q: What about the viability at 10 µM ([4]; % viability (SFV screen)) of the same compound?
A: Its viability at 10 µM is 87.4%.

Q: What about the viability at 10 µM [5] of the same compound?
A: The viability at 10 µM was 23.3%.

Q: With `OC(c1cc(C(F)(F)F)nc2c(C(F)(F)F)cccc12)C1CCCCN1` (stereo not shown) [Mefloquine hydrochloride] as the compound, how does the inhibition at 10 µM ([1]; Semliki Forest virus) read?
A: The inhibition at 10 µM was 94.3%.

Q: And the inhibition at 10 µM [2]?
A: Its inhibition at 10 µM is -22.1%.

Q: What about the viability at 10 µM ([4]; % viability (SFV screen)) of the same compound?
A: Its viability at 10 µM is 72.7%.

Q: And the viability at 10 µM [5]?
A: The viability at 10 µM was 7.25%.

Q: With `Nc1ncnc2c1ncn2[C@@H]1O[C@H](COP(=O)(O)O)[C@@H](O)[C@H]1O` [Adenosine 5'-monophosphate monohydrate] as the compound, how does the inhibition at 10 µM ([1]; Semliki Forest virus) read?
A: The inhibition at 10 µM was 73.4%.

Q: And the inhibition at 10 µM [2]?
A: The inhibition at 10 µM was -177%.

Q: And the viability at 10 µM ([4]; % viability (SFV screen))?
A: The viability at 10 µM was 86.8%.

Q: And the viability at 10 µM [5]?
A: Its viability at 10 µM is 105%.

Reference: article PMC6410080 (Viruses, 2019)
